# In patent publication EP3727588B1, “ACTIVATOR PEPTIDES OF THE ENZYME ADAM 10 AND RELATED USES IN THE TREATMENT OF ALZHEIMER'S DISEASE” (UNIVERSITA' DEGLI STUDI DI MILANO, priority 2017, dated 2019):
# Several values for one entry are separate records, joined by “and”; a condition that tells them apart may be missing. Equal values may be shown once. Peptide text beside a SMILES is read from it.
# How the values were obtained:
# [1] = leukogram (white blood cell count) after 14 days' treatment; type: in vivo, mice
# Procedure: (§1) C57/BL6 adult mice were treated for 14 days with daily intraperitoneal injection of saline solution or peptides at a dose of 3 nmol/g (6-10 animals per experimental group). The animals were maintained in an enclosure at 25 ± 2 °C with an alternating light/dark cycle of 12 hours and had free access to water and food in the form of pellets (standard diet).
# (§2) The blood, collected through cardiac puncture, was analysed with a laser counter (ADVIA 120, Siemens) using specific software for the murine species. From each sample a blood smear was prepared, stained with the May Grünwald-Giemsa method, and used for the morphological analysis of the leukocytes, the red blood cells and the platelet estimate. After the automatic counting of the cells and the preparation of the smear, all the samples were centrifuged and the plasma was transferred into separate test tubes. The analysis of the plasma samples was performed through automatic spectrophotometer (ILAB-300, Instrumentation Laboratory). All the results were compared with the values provided by the company Charles River for mice of the same strain and age.
# Except for the basophils and eosinophils, the total count and white blood cell (WBC) differential is lower with respect to the range values in all the animals treated. However, we noticed that the reference range values provided by the company Charles River are particularly high with respect to other values provided for other control groups and in other scientific articles in which the same animal strain is analysed. Justification for these differences found is provided by the pre-analytical factors used by Charles River in determining the different reference ranges (such as the method used, the type of sampling used, etc.). Despite this, the analyses of the data performed both individually and by examining the mean and median values in the different groups, show some differences in the values referring to mice treated with the active peptide with respect to the control mice (Table 2).
# The following Table 2 illustrates the results of the white blood cell count. The reference values are provided by Charles River for C57BL mice of 56-70 days.
# [2] = Novel Object Recognition Test (NORT), C57BL/6 mice; type: in vivo; conditions: 14 days' treatment
# Procedure: as §1
# After 14 days of treatment the animals were subjected to the Novel Object Recognition Test (NORT). Such test is structured in three phases: habituation, familiarization and testing. In the first phase, the animal is placed in an empty arena and left free to explore the environment for 5 minutes. The day after, during the familiarization phase, the animal is placed in the same arena in the presence of two objects, identical in shape and size, for 10 minutes. Then the time spent by the animal exploring the individual object is recorded. On the third day, the animal is placed in the area in the presence of an identical object to that used in the familiarization phase and a new one. In this phase the difference in time spent by the animal exploring the familiar object and the new object is evaluated. […] In both phases of the test, the objects are positioned symmetrically and opposite inside the arena, and all the sessions are recorded with the aid of a video camera. […]
# [3] = blood count and platelet count after 14 days' treatment; type: in vivo, mice; set-up: key to Aggregate s: +, ++, +++ considering the presence of platelet aggregates detected in the blood smear that make the analysis difficult; +, ++, +++ considering the presence of platelet aggregates detected in the blood smear that make the analysis difficult; +, ++, +++ considering the presence of platelet aggregates detected in the blood smear that make the analysis difficult; key to Estimate Plt: A= appropriate platelet estimate
# Procedure: as §1, §2
# The range values are provided by Charles River for C57BL mice aged between 56-70 days, whose blood was collected by cardiac puncture after euthanasia.
# [4] = body weight and food intake during 14 days' treatment; type: in vivo; conditions: C57BL/6 mice, daily intraperitoneal 3 nmol/g
# Procedure: as §1
# For the entire duration of the treatment, on a daily basis, the weight and food intake of each animal were monitored and recorded, in order to evaluate any changes caused by the treatment. 24 hours after the last injection the mice were anaesthetized, and then the blood was taken through cardiac puncture, whereas the brain and liver of the animal were rapidly dissected to perform biochemical or immunohistological analyses.
# The body weight and food intake were monitored and recorded on a daily basis.
# [5] = test system: GFAP and Iba-1 positive cells; assay: neuro-inflammation: GFAP and Iba-1 positive cells in hippocampus; type: in vivo, mice; conditions: 5 fields, 14 days' treatment
# Procedure: as §1
# After the sacrifice of the treated animal, a portion of liver and a brain hemisphere were fixed in 10% formalin for 48 hours, and included in paraffin. From each block of paraffin, serial sections 5/6µm thick were obtained. The sections were then stained with haematoxylin-eosin or processed through immunohistochemistry.
# Subsequently, to evaluate the presence of neuro-inflammation, 5 different fields of the hippocampus were considered to verify any presence of GFAP and Iba-1 positive cells.
# [6] = test system: dendritic spines of the hippocampal neurons; assay: dendritic spine morphology and density in hippocampus, C57BL/6 mice; type: in vivo; conditions: 14 days' treatment
# Procedure: as §1
# For the dendritic spine analysis, the protocol used is the one previously described by Kim et al, and envisages the use of DilDye lipophilic tracer (Invitrogen) to allow the dendritic spines to be viewed under the confocal microscope. The analysis of the dimensions and morphology of the spines was performed with ImageJ software.
# The spines were classified, based on their morphology, into three different categories: thin, stubby (without a well-defined "neck") and mushroom shaped. To evaluate the possible effect induced by PEP3 on the spine morphology, two animals for each experimental group were perfused after 14 days of treatment and the brain was post-fixed in PFA and cut with a vibratome. To view the dendritic spines the lipophilic tracer DilDye was used. From the images acquired from the confocal microscope the number, length and width of the head of the dendritic spines of the hippocampal neurons were measured.
# [7] = individual animal, 14 days, daily intraperitoneal 3 nmol/g
smiles,measurement,setting,value
"N=C(N)NCCC[C@H](NC(=O)CNC(=O)[C@@H](N)Cc1ccc(O)cc1)C(=O)N[C@@H](CCCCN)C(=O)N[C@@H](CCCCN)C(=O)N[C@@H](CCCNC(=N)N)C(=O)N[C@@H](CCCNC(=N)N)C(=O)N[C@@H](CCC(N)=O)C(=O)N[C@@H](CCCNC(=N)N)C(=O)N[C@@H](CCCNC(=N)N)C(=O)N[C@@H](CCCNC(=N)N)C(=O)NCC(=O)NCC(=O)N[C@@H](CO)C(=O)NCC(=O)N[C@@H](CCC(N)=O)C(=O)N1CCC[C@H]1C(=O)N1CCC[C@H]1C(=O)N[C@@H](CCC(=O)O)C(=O)N[C@@H](CCC(N)=O)C(=O)N[C@@H](CCC(=O)O)C(=O)N1CCC[C@H]1C(=O)N[C@@H](CCCNC(=N)N)C(=O)NCC(=O)O [inPEP3, reference compound] (H-YGRKKRRQRRRGGSGQPPEQEPRG-OH)",Basophils,[1]; group mean,0 µL⁻¹
same,Eosinophils,[1]; group mean,39.9 µL⁻¹
same,Lymphocytes,[1]; group mean,1935.9 µL⁻¹
same,Monocytes,[1]; group mean,137.1 µL⁻¹
same,Neutrophils,[1]; group mean,990.5 µL⁻¹
same,White blood cells,[1]; group mean,3103.3 µL⁻¹
same,Basophils,[1]; group median,0 µL⁻¹
same,Eosinophils,[1]; group median,(-0.0378). x10^3/µL
same,Lymphocytes,[1]; group median,(-1.837). x10^3/µL
same,Monocytes,[1]; group median,(-0.0918). x10^3/µL
same,Neutrophils,[1]; group median,(-0.2468). x10^3/µL
same,White blood cells,[1]; group median,(-2.295). x10^3/µL
same,Basophils,[1]; [7],0 µL⁻¹
same,Eosinophils,[1]; [7],26.1 µL⁻¹ and 31 µL⁻¹ and 44.8 µL⁻¹ and 62 µL⁻¹ and 36 µL⁻¹ and 39.6 µL⁻¹
same,Lymphocytes,[1]; [7],2218.5 µL⁻¹ and 1271 µL⁻¹ and 1971.2 µL⁻¹ and 2976 µL⁻¹ and 1476 µL⁻¹ and 1702.8 µL⁻¹
same,Monocytes,[1]; [7],104.4 µL⁻¹ and 15.5 µL⁻¹ and 179.2 µL⁻¹ and 372 µL⁻¹ and 72 µL⁻¹ and 79.2 µL⁻¹
same,Neutrophils,[1]; [7],261 µL⁻¹ and 232.5 µL⁻¹ and 2284.8 µL⁻¹ and 2790 µL⁻¹ and 216 µL⁻¹ and 158.4 µL⁻¹
same,White blood cells,[1]; [7],2610 µL⁻¹ and 1550 µL⁻¹ and 4480 µL⁻¹ and 6200 µL⁻¹ and 1800 µL⁻¹ and 1980 µL⁻¹
same,time exploring the new object,[2],59.24 ± 4.58%
same,(Ht),[3]; group mean,48.6%
same,Hb,[3]; group mean,12.3 g/dL
same,Mean Corpuscula r Hb (MCH),[3]; group mean,13.4 pg
same,Mean Corpuscula r Hb Conc. MCHC,[3]; group mean,25.3%
same,Platelet count,[3]; group mean,661000 µL⁻¹
same,Red blood cells,[3]; group mean,9.16e+06 µL⁻¹
same,Red cell distribution width (RDW),[3]; group mean,20.7%
same,Vol. Mean Corp. Vol. (MCV),[3]; group mean,53.1 fL
same,(Ht),[3]; group median,-48.4%
same,Hb,[3]; group median,-12.3 g/dL
same,Platelet count,[3]; group median,-659000 µL⁻¹
same,Red blood cells,[3]; group median,-9.13e+06 µL⁻¹
same,Red cell distribution width (RDW),[3]; group median,-20.5%
same,Vol. Mean Corp. Vol. (MCV),[3]; group median,-53.1 fL
same,Estimate Plt,"[3]; individual animal, blood smear, first part of cell",A
same,Aggregate s,"[3]; individual animal, blood smear, second part of cell",+++
same,(Ht),[3]; [7],50.1% and 49.5% and 47.8% and 48.7% and 48% and 47.3%
same,Hb,[3]; [7],12.6 g/dL (2×) and 12 g/dL (2×) and 12.4 g/dL and 12.1 g/dL
same,Mean Corpuscula r Hb (MCH),[3]; [7],13.5 Pg (3×) and 13.3 Pg and 13.4 Pg (2×)
same,Mean Corpuscula r Hb Conc. MCHC,[3]; [7],25.1% (2×) and 25.5% (2×) and 25.2% and 25.4%
same,Platelet count,[3]; [7],522000 µL⁻¹ and 661000 µL⁻¹ and 656000 µL⁻¹ and 341000 µL⁻¹ and 998000 µL⁻¹ and 790000 µL⁻¹
same,Red blood cells,[3]; [7],9.36e+06 µL⁻¹ and 9.34e+06 µL⁻¹ and 9.01e+06 µL⁻¹ and 9.21e+06 µL⁻¹ and 9.04e+06 µL⁻¹ and 8.97e+06 µL⁻¹
same,Red cell distribution width (RDW),[3]; [7],20.4% and 20.6% and 21.4% and 21.8% and 19.6% and 20.1%
same,Vol. Mean Corp. Vol. (MCV),[3]; [7],53.5 fL and 53 fL and 53.1 fL (2×) and 52.9 fL and 52.7 fL
same,food intake (ratio daily food intake / mean body weight),[4],99.03±2.03%
same,number of GFAP positive cells,[5],31.67±1.12
same,number of Iba-1 positive cells,[5],8.50±0.43
same,density of the dendritic spines,[6],10.15±1.05 n. of spines/10µm
same,length of mushroom shaped spines,[6],0.85±0.04
same,length of the spines,[6],0.83±0.02 µm
same,percentage of mushroom shaped spines,[6],30.81 ± 1.78%
same,percentage of stubby spines,[6],42.78 ± 1.86%
same,percentage of thin spines,[6],26.41 ± 1.42%
same,width of the head of spines,[6],0.79±0.02 µm
